Measurements published in patent US20030203975A1, “Anti-cancer agents” (priority 1998, published 2003).
Counter-ions that a name gives are not always drawn.

Tested on: not given
Assay: not given
Conditions: not given

| melting point [°C] | Compound |
| --- | --- |
| 124 | CC(C)(C)OC(=O)NCC(=O)OCCCNc1ccc(O)c2c1C(=O)c1ccccc1C2=O |
| 152 | CC(C)(C)OC(=O)NCC(=O)OCCCNc1ccc(O)c2c1C(=O)c1c(O)cccc1C2=O |
| 86 | CC(C)C[C@H](NC(=O)OC(C)(C)C)C(=O)NCC(=O)OCCCNc1cccc2c1C(=O)c1ccccc1C2=O |
| 60 | C[C@H](NC(=O)OC(C)(C)C)C(=O)OCCCNc1cccc2c1C(=O)c1ccccc1C2=O |
| 58 | C[C@@H](NC(=O)OC(C)(C)C)C(=O)OCCCNc1cccc2c1C(=O)c1ccccc1C2=O |
| 168 | CC(C)(C)OC(=O)N[C@H](Cc1ccccc1)C(=O)OCCCNc1cccc2c1C(=O)c1ccccc1C2=O |
| 121 | CC(C)(C)OC(=O)N1CCC[C@H]1C(=O)OCCCNc1cccc2c1C(=O)c1ccccc1C2=O |
| 120 | CC(C)(C)OC(=O)N1CCC[C@@H]1C(=O)OCCCNc1cccc2c1C(=O)c1ccccc1C2=O |
| 58 | CC[C@H](NC(=O)OC(C)(C)C)C(=O)OCCCCNc1cccc2c1C(=O)c1ccccc1C2=O |
| 62 | C[C@@H](C(=O)OCCCCNc1cccc2c1C(=O)c1ccccc1C2=O)N(C)C(=O)OC(C)(C)C |
| 154 | NCC(=O)OCCCCNc1cccc2c1C(=O)c1ccccc1C2=O (as salt: trifluoroacetate) [Example 81, 1-[4-(glycyloxy)butylamino]anthracene-9,10-dione trifluoroacetate] |

| Compound | melting point [°C] |
| --- | --- |
| C[C@H](NC(=O)OC(C)(C)C)C(=O)OCCCCNc1cccc2c1C(=O)c1ccccc1C2=O [Example 42, 1-[4-(N-tertiarybutoxycarbonyl-L-alanyloxy)butylamino] anthracene-9,10-dione] | 102 |
| C[C@@H](NC(=O)OC(C)(C)C)C(=O)OCCCCNc1cccc2c1C(=O)c1ccccc1C2=O [Example 44, 1-[4-(N-tertiarybutoxycarbonyl-D-alanyloxy)butylamino] anthracene-9,10-dione] | 100 |
| CC(C)(C)OC(=O)NCC(=O)OCCNc1cccc2c1C(=O)c1ccccc1C2=O [Example 58, 1-[2-(N-tertiarybutoxycarbonylglycyloxy)ethylamino]anthracene-9,10-dione] | 122 |
| CC(C)(C)OC(=O)NCC(=O)OCCCCNc1cccc2c1C(=O)c1ccccc1C2=O [Example 80, 1-[4-(N-tertiarybutoxycarbonylglycyloxy)butylamino]anthracene-9,10-dione] | 70 |

Tested on: MAC 15A adenocarcinoma of the colon
Assay: In vitro chemosensitivity against MAC 15A adenocarcinoma (MTT assay)
Assay type: cell-based
Conditions: 96 hours continuous exposure
Description: In Vitro Activity Against MAC 15A Adenocarcinoma.
MAC 15A cells were grown in RPMI 1640 medium supplemented with 10% foetal calf serum containing a 1% antibiotic mixture under standard tissue culture conditions and were maintained at 37° C. in a humidified atmosphere of 5% CO2 in air. Cells were harvested from a stock culture in exponential growth phase and plated in 96-well flat-bottomed plates to achieve a final density of 2×10^3 cells per well. After 2 hours incubation medium was replaced with either fresh medium containing 0.5% DMSO (control) or medium containing test compound dissolved in DMSO at a concentrations from 10 mM to 1 nM. Chemosensitivity was assessed using MTT assay by the method of Plumb et al Cancer Research 49 (1989) 4435-4440.
Following 96 hours continuous exposure to drug at 37° C. cells were incubated with fresh drug-free medium immediately prior to addition of MTT solution (5 mg/ml). Medium and MTT were removed after 4 hours and 150 μl of DMSO was added. For each plate the absorbance of the resulting solution was measured at the analytical wavelength 550 nm for formazan product, using a Labsystem Mutiskan. IC50 values were obtained from growth curves of drug concentration against % survival and are expressed in μm.

| Compound | IC50 [µM] |
| --- | --- |
| N[C@@H](CCCNC(=O)OCc1ccccc1)C(=O)OCCCNc1cccc2c1C(=O)c1ccccc1C2=O [Example 71, 1-[3-(N-δ-benzyloxycarbonyl-L-ornithyloxy)propylaminol]anthracene-9,10-dione trifluoroacetate] | 2.4 |
| CC(C)(COC(=O)CN)Nc1cccc2c1C(=O)c1ccccc1C2=O [Example 97, 2-[(9,10-dioxoanthryl)amino]-2-methylpropyl 2-aminoacetate trifluoro-acetate] | 15 |
| C[C@H](N)C(=O)OCC(C)(C)Nc1cccc2c1C(=O)c1ccccc1C2=O [Example 99, 2-[(9,10-dioxoanthryl)amino]-2-methylpropyl (2S)-2-amino propanoate trifluoroacetate] | 35 |
| C[C@H](N)C(=O)OCCc1ccc(Nc2cccc3c2C(=O)c2ccccc2C3=O)cc1 [Example 103] | 4.7 |
| C[C@@H](N)C(=O)OCCc1ccc(Nc2cccc3c2C(=O)c2ccccc2C3=O)cc1 [Example 105] | 3.4 |
| NCC(=O)OCCN1CCN(c2cccc3c2C(=O)c2ccccc2C3=O)CC1 [Example 107, 2-[4-(9,10-dioxoanthryl)piperazinyl]ethyl 2-aminoacetate bis-trifluoroacetate] | 24 |
| C[C@H](N)C(=O)OC1CCN(c2cccc3c2C(=O)c2ccccc2C3=O)CC1 [Example 117, 1-(9,10-dioxoanthryl)-4-piperidyl-(2S)-2-aminopropanoate trifluoro-acetate] | 14 |
| C[C@H](N)C(=O)OC[C@@H]1CCCN1c1cccc2c1C(=O)c1ccccc1C2=O [Example 121, [(2S)-1-(9,10-dioxoanthryl)pyrrolidin-2-yl]methyl (2S)-2-amino-propanoate trifluoroacetate] | 22 |
| NCC(=O)N1CCC[C@H]1C(=O)OC[C@H](Cc1ccccc1)Nc1ccc(O)c2c1C(=O)c1c(O)cccc1C2=O [Example 135, (2S)-2-[(4,8-dihydroxy-9,10-dioxoanthryl)amino]-3-phenylpropyl (2S) -1-(2-aminoacetyl)pyrrolidine-2-carboxylate trifluoroacetate] | 2.5 |
| (2S)-2-[(9,10-dioxoanthryl)amino]propyl (2S)-2-propanoate trifluoroacetate [Example 119] | 5.5 |

Same assay, conditions: Mus musculus, MAC15A, 96 h, 96 hours continuous exposure

| Compound | IC50 [µM] |
| --- | --- |
| CC(C)[C@H](N)C(=O)OCCCNc1ccc(O)c2c1C(=O)c1ccccc1C2=O [Example 51, 4-hydroxy-1-[3-(L-valyloxy)propylamino]anthracene-9,10-dione tri-fluoroacetate] | 4.9 |
| COc1ccc(C[C@H](N)C(=O)OCCCNc2cccc3c2C(=O)c2ccccc2C3=O)cc1 [Example 79, 1-[3-(O-methyl-L-tyrosyloxy)propylamino]anthracene-9,10dione tri-fluoroacetate] | 3.5 |
| C[C@H](N)C(=O)OCCOCCNc1cccc2c1C(=O)c1ccccc1C2=O [Example 109, 1-[2-(2-{L-alanyloxy}ethoxy)ethylamino]anthracene-9,10-dione tri-fluoroacetate] | 11.5 |
| C[C@@H](N)C(=O)OCCOCCNc1cccc2c1C(=O)c1ccccc1C2=O [Example 111, 1-[2-(2-{D-alanyloxy}ethoxy)ethylamino]anthracene-9,10-dione tri-fluoroacetate] | 24 |

Same assay, conditions: Mus musculus, MAC15A, 96 hours continuous exposure

| IC50 [µM] | Compound |
| --- | --- |
| 7.5 | C[C@H](N)C(=O)OCCNc1cccc2c1C(=O)c1ccccc1C2=O [Example 23, 1-[2-(L-alanyloxy)ethylamino]anthracene-9,10-dione trifluoroacetate] |
| 30 | CC(C)[C@H](N)C(=O)OCCNc1cccc2c1C(=O)c1ccccc1C2=O [Example 25, 1-[2-(L-valyloxy)ethylamino]anthracene-9,10-dione trifluoroacetate] |
| 14 | CC(C)[C@@H](N)C(=O)OCCNc1cccc2c1C(=O)c1ccccc1C2=O [Example 27, 1-[2-(D-valyloxy)ethylamino]anthracene-9,10-dione trifluoroacetate] |
| 3 | N[C@@H](Cc1ccccc1)C(=O)OCCCNc1cccc2c1C(=O)c1ccccc1C2=O [Example 39, 1-[3-(L-phenylalanyloxy)propylamino]anthracene-9,10-dione trifluoro-acetate] |
| 5 | N[C@H](C(=O)OCCCNc1cccc2c1C(=O)c1ccccc1C2=O)c1ccccc1 [Example 73, 1-[3-(L-phenylglycyloxy)propylamino]anthracene-9,10dione trifluoro-acetate] |
| 4.2 | N[C@@H](C(=O)OCCCNc1cccc2c1C(=O)c1ccccc1C2=O)c1ccccc1 [Example 75, 1-[3-(D-phenylglycyloxy)propylamino]anthracene-9, 10dione trifluoro-acetate] |
| 9.4 | NCC(=O)OCCCCNc1cccc2c1C(=O)c1ccccc1C2=O [Example 81, 1-[4-(glycyloxy)butylamino]anthracene-9,10-dione trifluoroacetate] |
| 4.5 | CCCC(=O)OCCCCNc1cccc2c1C(=O)c1ccccc1C2=O [Example 89, 1-[4-(butanoyloxy)butylamino]anthracene-9,10-dione trifluoroacetate] |
| 7 | N[C@@H](Cc1ccccc1)C(=O)OCCOCCNc1cccc2c1C(=O)c1ccccc1C2=O [Example 113, 1-[2-(2-{L-phenylalanyloxy}ethoxy)ethylamino]anthracene-9,10-dione trifluoroacetate] |
| 12 | N[C@H](Cc1ccccc1)C(=O)OCCOCCNc1cccc2c1C(=O)c1ccccc1C2=O [Example 115, 1-{2-(2-[D-phenylalanyloxy]ethoxy)ethylamino}anthracene-9,10-dione trifluoroacetate] |
| 4 | NCC(=O)NCC(=O)OCCCNc1cccc2c1C(=O)c1ccccc1C2=O [Example 129, 1-[3-(glycylglycyloxy)propylamino]anthracene-9,10-dione trifluoro-acetate] |

| Compound | IC50 [µM] |
| --- | --- |
| N[C@@H](Cc1c[nH]c2ccccc12)C(=O)OCCCCCONc1cccc2c1C(=O)c1ccccc1C2=O [Example 77, 1-[5-(L-tryptophyloxy)pentoxyamino]anthracene-9,10-dione trifluoro-acetate] | 5.5 |
| CN[C@@H](C)C(=O)OCCCCNc1cccc2c1C(=O)c1ccccc1C2=O [Example 85, 1-[4-(methylalanyloxy)butylamino]anthracene-9,10-dione trifluoro-acetate] | 3.2 |
| C[C@H](N)C(=O)OCCCCCNc1cccc2c1C(=O)c1ccccc1C2=O [Example 93, 1-[5-(L-alanyloxy)pentylamino]anthracene-9,10-dione trifluoroacetate] | 3.5 |
| C[C@@H](N)C(=O)OCCCCCNc1cccc2c1C(=O)c1ccccc1C2=O [Example 95, 1-[5-(D-alanyloxy)pentylamino]anthracene-9,10-dione trifluoroacetate] | 3.1 |
